From PMC11268196, “Biochemical characterization of ClpB and DnaK from Anaplasma phagocytophilum” (Cell Stress & Chaperones, 2024)

Columns and labels:
[1] = target: T1, ApK (A. phagocytophilum DnaK) (Anaplasma phagocytophilum, UniProt Q2GKZ8); test: fluorescence anisotropy of FITC-labeled peptide B2 (nucleotide effect on peptide binding); conditions: 2 mM ADP; indirect read-out through labelled peptide B2
T1 sequence (Q2GKZ8 1-645): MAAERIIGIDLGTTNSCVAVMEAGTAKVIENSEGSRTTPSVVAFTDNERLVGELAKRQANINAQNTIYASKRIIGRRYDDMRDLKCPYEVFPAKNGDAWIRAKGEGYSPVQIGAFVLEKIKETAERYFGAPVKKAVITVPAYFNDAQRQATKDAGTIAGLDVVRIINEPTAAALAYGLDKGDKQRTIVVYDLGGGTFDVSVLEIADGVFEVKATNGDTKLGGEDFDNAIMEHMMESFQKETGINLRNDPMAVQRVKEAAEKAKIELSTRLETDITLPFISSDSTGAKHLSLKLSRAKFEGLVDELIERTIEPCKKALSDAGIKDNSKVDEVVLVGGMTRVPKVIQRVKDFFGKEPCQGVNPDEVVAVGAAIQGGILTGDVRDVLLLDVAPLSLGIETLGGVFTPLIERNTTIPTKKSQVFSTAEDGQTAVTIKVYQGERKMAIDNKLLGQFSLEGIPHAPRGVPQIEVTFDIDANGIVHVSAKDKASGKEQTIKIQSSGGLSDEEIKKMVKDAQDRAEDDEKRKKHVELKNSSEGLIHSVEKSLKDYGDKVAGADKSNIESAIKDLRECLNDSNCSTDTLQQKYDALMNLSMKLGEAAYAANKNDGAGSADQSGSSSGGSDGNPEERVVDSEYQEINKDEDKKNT

EcK (E. coli DnaK) = EcK (E. coli DnaK) (Escherichia coli, UniProt P0A6Y8); conditions: 5 mM ATP, 20 mM MgCl2, pH 7.4, 37 °C; basal (no casein or poly-lysine)
EcK (E. coli DnaK), sequence (P0A6Y8 2-638): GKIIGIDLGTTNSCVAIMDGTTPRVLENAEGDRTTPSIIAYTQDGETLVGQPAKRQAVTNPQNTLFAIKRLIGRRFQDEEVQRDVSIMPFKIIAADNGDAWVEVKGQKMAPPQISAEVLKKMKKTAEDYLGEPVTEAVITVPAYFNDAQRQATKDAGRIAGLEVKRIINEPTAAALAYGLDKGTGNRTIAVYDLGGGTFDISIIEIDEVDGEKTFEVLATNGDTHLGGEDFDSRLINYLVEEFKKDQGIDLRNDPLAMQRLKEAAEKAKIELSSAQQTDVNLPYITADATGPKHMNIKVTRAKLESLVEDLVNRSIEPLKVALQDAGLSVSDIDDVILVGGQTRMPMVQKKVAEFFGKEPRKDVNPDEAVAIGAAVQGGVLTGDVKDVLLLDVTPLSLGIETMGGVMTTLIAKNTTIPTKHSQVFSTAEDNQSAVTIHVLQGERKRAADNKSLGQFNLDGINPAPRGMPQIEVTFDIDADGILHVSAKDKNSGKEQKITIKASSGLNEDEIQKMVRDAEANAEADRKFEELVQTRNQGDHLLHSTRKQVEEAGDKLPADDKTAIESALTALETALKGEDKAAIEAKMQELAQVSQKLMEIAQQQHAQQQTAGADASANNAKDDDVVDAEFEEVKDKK

[2] = target: T2, ApB (A. phagocytophilum ClpB) (Anaplasma phagocytophilum, UniProt Q2GL99); conditions: 5 mM ATP, 20 mM MgCl2, pH 7.4, 37 °C; basal (no casein or poly-lysine)
T2 sequence (Q2GL99 1-859): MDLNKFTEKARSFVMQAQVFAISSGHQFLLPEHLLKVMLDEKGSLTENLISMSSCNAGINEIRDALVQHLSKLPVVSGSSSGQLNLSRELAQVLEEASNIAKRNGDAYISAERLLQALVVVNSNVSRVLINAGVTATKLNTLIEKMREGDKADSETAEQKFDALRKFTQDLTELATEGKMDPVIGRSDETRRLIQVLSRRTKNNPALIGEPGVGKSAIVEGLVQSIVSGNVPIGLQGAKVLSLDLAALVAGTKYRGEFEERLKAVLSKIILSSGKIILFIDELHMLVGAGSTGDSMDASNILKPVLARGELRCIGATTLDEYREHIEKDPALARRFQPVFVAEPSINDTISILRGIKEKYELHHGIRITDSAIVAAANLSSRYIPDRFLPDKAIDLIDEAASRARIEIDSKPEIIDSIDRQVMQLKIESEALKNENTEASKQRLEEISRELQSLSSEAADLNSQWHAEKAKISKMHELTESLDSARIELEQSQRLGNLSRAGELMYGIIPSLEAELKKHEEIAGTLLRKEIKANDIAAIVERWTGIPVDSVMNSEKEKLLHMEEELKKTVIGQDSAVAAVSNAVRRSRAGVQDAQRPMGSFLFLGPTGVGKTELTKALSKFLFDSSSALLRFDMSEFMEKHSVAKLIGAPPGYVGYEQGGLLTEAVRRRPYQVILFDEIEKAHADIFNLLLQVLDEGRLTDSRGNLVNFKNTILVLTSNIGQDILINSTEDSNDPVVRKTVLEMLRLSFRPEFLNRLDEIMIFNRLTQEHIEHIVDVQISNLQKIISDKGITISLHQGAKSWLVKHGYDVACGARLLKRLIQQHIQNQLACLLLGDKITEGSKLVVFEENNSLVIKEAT

EcB (E. coli ClpB) = EcB (E. coli ClpB) (Escherichia coli, UniProt P63284); test: malachite green phosphate release (ATPase); type: biochemical; conditions: 5 mM ATP, 20 mM MgCl2, pH 7.4, 37 °C; basal (no casein or poly-lysine)
EcB (E. coli ClpB), sequence (P63284 whole entry): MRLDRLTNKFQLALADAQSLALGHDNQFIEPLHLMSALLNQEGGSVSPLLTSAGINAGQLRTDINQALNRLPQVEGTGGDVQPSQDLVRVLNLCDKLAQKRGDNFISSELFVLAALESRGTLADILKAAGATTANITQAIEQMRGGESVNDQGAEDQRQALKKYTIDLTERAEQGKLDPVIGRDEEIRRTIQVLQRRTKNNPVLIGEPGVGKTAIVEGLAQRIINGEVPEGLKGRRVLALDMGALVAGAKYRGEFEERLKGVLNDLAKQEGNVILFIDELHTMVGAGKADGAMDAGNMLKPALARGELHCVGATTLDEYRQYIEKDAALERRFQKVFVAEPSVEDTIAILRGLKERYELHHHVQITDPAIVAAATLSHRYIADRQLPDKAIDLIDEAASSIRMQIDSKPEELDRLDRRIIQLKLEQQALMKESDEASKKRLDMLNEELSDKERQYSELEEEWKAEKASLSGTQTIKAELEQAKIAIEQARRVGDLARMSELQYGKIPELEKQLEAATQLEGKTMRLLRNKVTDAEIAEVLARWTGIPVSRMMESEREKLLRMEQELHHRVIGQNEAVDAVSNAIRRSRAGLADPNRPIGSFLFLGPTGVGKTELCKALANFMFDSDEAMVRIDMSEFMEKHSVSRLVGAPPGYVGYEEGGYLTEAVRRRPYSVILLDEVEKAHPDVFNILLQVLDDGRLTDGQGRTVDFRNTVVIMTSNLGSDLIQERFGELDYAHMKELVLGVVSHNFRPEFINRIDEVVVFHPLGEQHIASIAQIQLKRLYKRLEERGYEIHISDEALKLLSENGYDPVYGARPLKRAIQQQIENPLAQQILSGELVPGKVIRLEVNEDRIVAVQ

[3] = target: T1, ApK (A. phagocytophilum DnaK); test: malachite green phosphate release (ATPase); type: biochemical; conditions: 5 mM ATP, 20 mM MgCl2, pH 7.4, 37 °C; basal (no casein or poly-lysine)

Structure (SMILES) | fluorescence anisotropy of FITC-labeled peptide B2 (nucleotide effect on peptide) [1] | ATPase activity (EcK (E. coli DnaK)) | ATPase activity [2] | ATPase activity (EcB (E. coli ClpB)) | ATPase activity [3]
Nc1ncnc2c1ncn2[C@@H]1O[C@H](COP(=O)(O)OP(=O)(O)O)[C@@H](O)[C@H]1O [ADP] | ADP induced a strong binding of B2 to ApK |  |  |  | 
Nc1ncnc2c1ncn2[C@@H]1O[C@H](COP(=O)(O)OP(=O)(O)OP(=O)(O)O)[C@@H](O)[C@H]1O [ATP] |  | The basal ATPase activity of ApK was lower than that of EcK | the basal ATPase activity of ApB exceeded that of EcB | the basal ATPase activity of ApB exceeded that of EcB | The basal ATPase activity of ApK was lower than that of EcK
